From ChEMBL document CHEMBL1133979, “1,2,4-triazolo[3,4-a]pyridine as a novel, constrained template for fibrinogen receptor (GPIIb/IIIa) antagonists” (Bioorg Med Chem Lett, 2001)

Assays:
[1] = target: T1, Integrin alpha-IIb/beta-3 (Homo sapiens, UniProt P05106+P08514); experiment: Inhibition of biotinylated fibrinogen binding to immobilized integrin GPIIb/IIIa; format: protein-complex assay
Canis familiaris = experiment: Ex vivo oral duration for maintaining at least 50% inhibition of platelet aggregation induced by adenosine diphosphate after administration at a dose of at 1 mg/kg; format: functional, Canis lupus familiaris
[2] = Oral bioavailability in dog; format: ADME, organism-based, Canis lupus familiaris; conditions: in vivo
[3] = target: T1, Integrin alpha-IIb/beta-3; experiment: Inhibition of thrombin-induced human gel-filtered platelet aggregation at 50 uM; NA= Inactive; format: functional
[4] = Half life in dog; format: ADME, organism-based, Canis lupus familiaris; conditions: in vivo

T1 sequence (P05106 27-788 limits assumed): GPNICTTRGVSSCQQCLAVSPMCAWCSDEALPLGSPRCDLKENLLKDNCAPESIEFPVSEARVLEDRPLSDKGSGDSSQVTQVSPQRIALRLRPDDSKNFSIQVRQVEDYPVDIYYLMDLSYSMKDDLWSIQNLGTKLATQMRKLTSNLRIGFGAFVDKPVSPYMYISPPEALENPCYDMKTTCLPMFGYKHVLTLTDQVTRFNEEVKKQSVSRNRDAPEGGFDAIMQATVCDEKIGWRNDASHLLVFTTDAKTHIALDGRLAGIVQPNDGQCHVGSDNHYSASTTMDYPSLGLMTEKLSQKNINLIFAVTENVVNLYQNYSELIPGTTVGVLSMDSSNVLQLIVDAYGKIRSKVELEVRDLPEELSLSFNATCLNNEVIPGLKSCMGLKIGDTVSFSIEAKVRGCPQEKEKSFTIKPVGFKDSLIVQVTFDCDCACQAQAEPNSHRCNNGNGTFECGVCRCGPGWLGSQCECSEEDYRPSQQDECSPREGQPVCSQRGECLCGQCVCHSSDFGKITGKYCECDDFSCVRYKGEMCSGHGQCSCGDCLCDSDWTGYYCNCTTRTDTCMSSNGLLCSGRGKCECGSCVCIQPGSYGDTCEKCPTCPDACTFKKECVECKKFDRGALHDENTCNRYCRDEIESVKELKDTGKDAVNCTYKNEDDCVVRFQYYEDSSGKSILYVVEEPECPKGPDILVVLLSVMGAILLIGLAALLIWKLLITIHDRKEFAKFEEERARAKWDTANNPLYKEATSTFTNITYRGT
T1 sequence (P08514 32-887 limits assumed): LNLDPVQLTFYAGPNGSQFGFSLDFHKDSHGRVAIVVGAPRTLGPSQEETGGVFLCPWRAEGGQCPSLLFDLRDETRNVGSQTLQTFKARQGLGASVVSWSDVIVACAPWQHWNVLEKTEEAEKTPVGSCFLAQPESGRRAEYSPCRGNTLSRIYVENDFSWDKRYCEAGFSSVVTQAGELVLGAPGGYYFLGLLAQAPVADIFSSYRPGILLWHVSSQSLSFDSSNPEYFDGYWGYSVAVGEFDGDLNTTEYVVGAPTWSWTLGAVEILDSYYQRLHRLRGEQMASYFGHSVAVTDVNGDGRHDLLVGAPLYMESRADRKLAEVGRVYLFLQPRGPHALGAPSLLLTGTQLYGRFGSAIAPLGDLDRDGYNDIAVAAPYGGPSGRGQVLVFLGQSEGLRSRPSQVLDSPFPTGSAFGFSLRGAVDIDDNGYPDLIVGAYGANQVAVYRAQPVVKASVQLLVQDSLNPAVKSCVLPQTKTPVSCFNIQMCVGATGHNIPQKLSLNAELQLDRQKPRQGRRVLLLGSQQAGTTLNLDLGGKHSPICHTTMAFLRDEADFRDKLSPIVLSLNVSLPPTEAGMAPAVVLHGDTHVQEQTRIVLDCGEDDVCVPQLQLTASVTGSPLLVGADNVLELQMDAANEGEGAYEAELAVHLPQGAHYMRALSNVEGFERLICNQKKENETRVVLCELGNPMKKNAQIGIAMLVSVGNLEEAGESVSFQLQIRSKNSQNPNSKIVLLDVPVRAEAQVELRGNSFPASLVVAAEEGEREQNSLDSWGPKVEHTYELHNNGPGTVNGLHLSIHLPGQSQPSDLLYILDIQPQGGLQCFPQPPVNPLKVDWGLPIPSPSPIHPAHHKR
T1 sequence (P08514 891-1039 limits assumed): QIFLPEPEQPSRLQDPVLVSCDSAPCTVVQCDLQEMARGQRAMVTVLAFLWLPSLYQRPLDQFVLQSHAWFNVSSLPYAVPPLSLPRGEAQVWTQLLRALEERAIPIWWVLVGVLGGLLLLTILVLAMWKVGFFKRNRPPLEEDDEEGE

Row | Compound | IC50 [1] [pM] | Oral duration (Canis familiaris) [h] | also measured
1 | O=C(N[C@@H](CNC(=O)C1CCCn2c(/C=C/C3CCNCC3)nnc21)C(=O)O)OCc1ccccc1 (stereo not given in full) | 320 | >6 | bioavailability [2]: 23%
2 | O=C(N[C@@H](CNC(=O)[C@@H]1CCCN(C(=O)CCC2CCNCC2)C1)C(=O)O)OCc1ccccc1 | 170 | 3 | 
3 | O=C(N[C@@H](CNC(=O)C1CCCn2c(CCC3CCNCC3)nnc21)C(=O)O)OCc1ccccc1 (stereo not given in full) |  | 4 | 
4 | O=C(O)C[C@H](NC(=O)C1CCCn2c(/C=C/C3CCNCC3)nnc21)c1cnc2ccccc2c1 (stereo not given in full) |  | 4.5 | 
5 | O=C(NC[C@H](NS(=O)(=O)Cc1ccccc1)C(=O)O)C1CCCn2c(/C=C/C3CCNCC3)nnc21 (stereo not given in full) |  | <0.5 | 
6 | CC1(C(=O)NC[C@H](NC(=O)OCc2ccccc2)C(=O)O)CCCn2c(CCC3CCNCC3)nnc21 (stereo not given in full) |  | <0.5 | 
7 | O=C(O)C[C@H](NC(=O)c1cccn2c(/C=C/C3CCNCC3)nnc12)c1cccnc1 |  |  | IC50 [3]: Not Active

More lines, main results first:

Row | IC50 [1] [pM] | Compound | Oral duration (Canis familiaris) [h] | also measured
8 | 4200 | O=C(O)C[C@H](NC(=O)c1cccn2c(CCC3CCNCC3)nnc12)c1cccnc1 |  | 
9 | 210 | O=C(O)C[C@H](NC(=O)C1CCCn2c(/C=C/C3CCNCC3)nnc21)c1cccnc1 (stereo not given in full) | >6 | bioavailability [2]: 31%
10 | 530 | O=C(O)C[C@H](NC(=O)C1CCCn2c(CCC3CCNCC3)nnc21)c1cccnc1 (stereo not given in full) | 3 | 
11 | 360 | O=C(O)C[C@H](NC(=O)[C@@H]1CCCN(C(=O)CCC2CCNCC2)C1)c1cccnc1 [ELAROFIBAN] | 5 | half-life [4]: 5 h; bioavailability ([2]; read-out: Bioavailabiility): 16%
